According to patent US20260176275A1, “VINYLPHOSPHONIC ACID-MODIFIED MRNA CAP ANALOG, METHOD FOR PREPARING SAME, AND USE THEREOF” (Jiangsu Synthgene Biotechnology Co., Ltd., priority 2022, published 2026):

How the values were obtained:
T7 RNA polymerase [1] = target: T1, T7 RNA polymerase (Escherichia phage T7, UniProt P00573); assay: IVT capping rate of mRNA by LC-MS after RNase H cleavage; format: biochemical
Experimental: (§1) In-vitro synthesis of mRNA cap analogs modified with vinylphosphonic acid: Firstly, a plasmid was linearized with NotI and digested at […] overnight. A DNA template was extracted. mRNAs were synthesized by in-vitro transcription using the vinylphosphonic acid-modified mRNA cap analogs of Examples 1-7 and compounds 10-13, 16, 17, 25, 31 and 34, and the cap analog of Comparative Example 1 as cap structures, respectively.
(§2) Note: During the experiment, the volume of the materials required for the system was calculated firstly, and then sample loading was performed. Firstly, sterile enzyme-free water was added into the system, and then 10× buffer, NTPs, and the cap analog were sequentially added. The mixture was uniformly mixed and then gently centrifuged, followed by addition of the nuclease inhibitor, the inorganic pyrophosphatase, the T7 RNA polymerase, and the linearized DNA template. The mixture was well mixed, then gently centrifuged, and incubated at 37° C. After 2 h, DNase I (1 U) was added, and the mixture was incubated at 37° C. for another 30 min to remove the DNA template. RNA purification was then performed (usually using the magnetic bead purification method). The purified mRNA was dissolved in sterile enzyme-free water, and then quantitative detection was performed by using Nanodrop One.
Liquid chromatography-mass spectrometry (LC-MS) was used to detect the IVT capping rates of mRNAs with different starting cap analogs. Firstly, a labeled (usually biotin-labeled) DNA probe matched with the starting base of mRNA as the transcript product was required to be designed, and streptavidin-labeled magnetic beads were washed, and then incubated with the synthesized DNA probe, mRNA and 10× RNase H reaction buffer with slowly mixing at room temperature for 30 min. 20 L of RNase H (5 U/μL) was then added, and the mixture was incubated at 37° C. for 3 h, with uniform mixing every half hour. After the incubation was completed, the magnetic beads were cleaned, and then 100 μL of 75% methanol heated to 80° C. was added to the cleaned magnetic beads. The mixture was heated to 80° C. on a heating plate, held for 3 min, and then placed on a magnetic rack. The supernatant was pipetted and dried at room temperature for 45 min to 10 Lby using an evaporation centrifuge. The sample was then resuspended in 50 μL of 100 μM EDTA/1% MeOH for LC-MS analysis to determine the capping of RNA in the transcription reaction. Due to the significant difference in molecular weight between capped and uncapped bases, the capping rates of mRNA transcription initiated with different cap analogs can be determined by using the difference in molecular weight.

293T cells = assay: mRNA translation efficiency: eGFP mRNA capped with the analogs transfected into 293T cells, GFP fluorescence; format: cell-based; details: summary of Table 6
Experimental: Test method: In-vitro transcription was initiated with the cap analogs of Examples 1-7, compounds 10-13, 16, 17, 25, 31 and 34, and Comparative Example 1 by using an eGFP coding sequence as a DNA template. The different mRNA products obtained were then transfected into 293T cells. The 293T cells were plated (onto a 24-well plate) at (0.5-1)×10^5 cells/well. During the transfection, in general, the cell density was preferably 60%-80%; […] was transfected into each well, and the Lipofectamine MessengerMAX Transfection Reagent (Invitrogen) was selected as the transfection reagent and used according to its usage instructions. The transfected cells were placed in an incubator at 37° C. with CO2. After transfection for 4-6 h, the medium was replaced with a fresh complete medium. After incubation in the incubator at 37° C. with CO2 for 24 h, the fluorescence intensity of GFPs in the cells was observed through a fluorescence microscope, and the fluorescence intensity ratios of Examples 1-7 and compounds 10-13, 16, 17, 25, 31 and 34 relative to Comparative Example 1 were calculated based on the fluorescence intensities.

[2] = target: eukaryotic initiation factor (elF4E) (Homo sapiens, UniProt P06730); assay: Assay of binding ability to eukaryotic initiation factor (elF4E), Biacore T100
Experimental: Test method: Firstly, experimental samples, including the cap analog samples of Examples 1-7, compounds 10-13, 16, 17, 25, 31 and 34, and Comparative Example 1, were diluted with a running buffer (50 mM phosphate, 100 mM sodium chloride, and 0.01% vol/vol Tween 20, pH 6.0 or 7.4). The sample injection time was […], the sample injection flow rate was 20 L/min, and the dissociation time was […]. The residual samples were eluted with a regeneration buffer (10 mM HEPES, 150 mM NaCl, and 0.010% vol/vol Tween 20, pH 7.4) for 30 s at a flow rate of 30 μL/min. Finally, through analysis by Biacore T100 evaluation software (version 2.0.2), sensorgrams were generated and the binding constants were calculated.

T7 RNA polymerase [3] = target: T1, T7 RNA polymerase; assay: mRNA in-vitro transcription yield with cap analog (T7 IVT, Nanodrop One quantification); format: biochemical
Experimental: as §1, §2

T1 sequence (P00573 whole entry): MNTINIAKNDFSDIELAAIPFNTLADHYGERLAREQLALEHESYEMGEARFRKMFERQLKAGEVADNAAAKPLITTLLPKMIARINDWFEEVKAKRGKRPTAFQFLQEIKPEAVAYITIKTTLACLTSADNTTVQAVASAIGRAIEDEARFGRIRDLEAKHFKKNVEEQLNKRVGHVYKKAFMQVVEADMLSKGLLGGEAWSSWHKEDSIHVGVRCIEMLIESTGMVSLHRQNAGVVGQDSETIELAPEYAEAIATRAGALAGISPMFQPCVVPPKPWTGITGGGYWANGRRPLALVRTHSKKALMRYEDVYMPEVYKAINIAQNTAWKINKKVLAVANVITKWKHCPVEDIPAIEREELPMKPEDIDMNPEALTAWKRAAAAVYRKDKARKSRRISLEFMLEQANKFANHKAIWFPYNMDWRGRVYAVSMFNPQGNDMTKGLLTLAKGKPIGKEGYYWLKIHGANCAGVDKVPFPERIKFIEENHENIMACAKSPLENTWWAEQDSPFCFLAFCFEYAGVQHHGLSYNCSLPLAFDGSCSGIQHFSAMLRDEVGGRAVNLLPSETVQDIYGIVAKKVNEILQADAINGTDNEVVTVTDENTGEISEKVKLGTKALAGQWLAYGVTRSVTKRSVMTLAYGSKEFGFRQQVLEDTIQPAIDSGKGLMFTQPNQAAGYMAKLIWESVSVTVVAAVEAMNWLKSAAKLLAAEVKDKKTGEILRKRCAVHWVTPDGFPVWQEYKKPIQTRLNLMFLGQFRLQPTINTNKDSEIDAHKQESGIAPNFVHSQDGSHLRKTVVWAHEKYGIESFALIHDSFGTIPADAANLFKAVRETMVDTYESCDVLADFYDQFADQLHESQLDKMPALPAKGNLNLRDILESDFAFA
eukaryotic initiation factor (elF4E), sequence (P06730 whole entry): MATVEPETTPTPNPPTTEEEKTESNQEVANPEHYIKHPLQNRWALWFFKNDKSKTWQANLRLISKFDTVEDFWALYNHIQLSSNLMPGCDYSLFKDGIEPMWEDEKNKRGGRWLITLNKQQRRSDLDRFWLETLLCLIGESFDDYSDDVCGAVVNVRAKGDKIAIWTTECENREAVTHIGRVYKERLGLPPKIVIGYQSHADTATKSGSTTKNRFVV

In the case of `COC1[C@@H](OP(=O)(O)/C=C/[C@H]2O[C@@H](n3cnc4c(=O)[nH]c(N)nc43)C(O)[C@H]2O)[C@@H](/C=C\P(=O)(O)OP(=O)(O)OP(=O)(O)/C=C\[C@H]2O[C@@H](n3c[n+](C)c4c(=O)[nH]c(N)nc43)[C@@H](O)C2O)O[C@H]1n1cnc2c(N)ncnc21` (stereo partly shown) [Example 7], the Capping rate (T7 RNA polymerase [1]; LC-MS of mRNA transcribed with the cap analog) is reported as 82.6%, the “capping efficiency compared with Comparative Example 1 (in words)” value (T7 RNA polymerase [1]; text summary of Table 4) is reported as “significantly lower than those of Comparative Example 1” and the “intracellular translation effect of mRNA compared with Comparative Example 1 (in words)” value (293T cells) is reported as “the lowest as compared to Comparative Example 1”. For the same compound, the “binding constant to elF4E protein compared with Comparative Example 1 (in words)” value ([2]; Table 5) was “the lowest as compared to Comparative Example 1”, the Kd ([2]; cap analog to elF4E protein, running buffer pH 6.0 or 7.4, read-out: Binding constant (converted)) was 1.16 µM and the Yield (T7 RNA polymerase [3]; mRNA from 20 μL IVT system, 1 μl 100 mM cap analog, 1 μg template, 37° C. 2 h) was 85 µg. The “in-vitro transcription yield compared with Comparative Example 1 (in words)” value (T7 RNA polymerase [3]; text summary of Table 4) was “significantly lower than those of Comparative Example 1”.
